Read-outs that look alike come from different tables or passages of the source. Marks after values point to notes of the source that are not given here.
How the values were obtained:
[1] = tested on: sorbitol accumulation in rat lens; test: Lens culture and intracellular sorbitol measurement (ex vivo); format: cell-based, Sprague-Dawley rats; conditions: 25 mM glucose, 6 days, sample 5 μg/mL, mean ± SD (n = 3); for inhibition at 5 µg/mL: 144 h
[2] = molecular target: T1, rat lens aldose reductase (RLAR) (Rattus norvegicus, UniProt P07943); test: Enzyme kinetics of RLAR inhibition (Lineweaver-Burk and Dixon plots); format: biochemical; conditions: for RLAR Mode of Inhibition: Lineweaver-Burk plot
T1 construct: from tissue; host or cells: lens of Sprague-Dawley rats (supernatant of homogenate)
Protocol: (§1) Enzyme inhibition with different concentrations ([…]) was assessed by monitoring the effects of different concentrations of the substrate. The following concentrations of test ginsenosides were used in the RLAR kinetics analysis: 0, 2, 10, and 50 µM for protopanaxadiol; 0, 0.5, 2.5, and 10 µM for (20S) ginsenoside Rg3; 0, 0.5, 2.5, and 10 µM for (20R) ginsenoside Rg3; 0, 0.1, 0.5, and 2.5 µM for ginsenoside Rh2; 0, 2, 10, and 50 µM for protopanaxatriol; 0, 0.8, 4, and 20 µM for ginsenoside Rf; 0, 0.8, 4, and 20 µM for (20S) ginsenoside Rg2, and 0, 0.5, 2.5, and 10 µM for ginsenoside Rh1. Using Lineweaver-Burk double reciprocal plots, the inhibition type was determined using various concentrations of DL-glyceraldehyde (5, 10, and 20 mM) for HRAR as a substrate in the presence of different concentrations of the active test ginsenosides. The concentrations of test ginsenosides in the HRAR kinetics analysis were as follows: 0, 0.1, 0.5, and 2.5 µM for protopanaxadiol; 0, 0.5, 2, and 10 µM for (20S) ginsenoside Rg3; 0, 1, 5, and 20 µM for (20R) ginsenoside Rg3; 0, 0.5, 2.5, and 10 µM for ginsenoside Rh2; 0, 0.1, 0.5, and 2.5 µM for compound K; 0, 1, 5, and 10 µM for protopanaxatriol; 0, 0.5, 4, and 20 µM for (20R) ginsenoside Rg2, and 0, 0.2, 2, and 5 µM for ginsenoside Rh1. The Dixon plot is a graphical method [1/enzyme velocity (1/V)] against inhibitor concentration [I] used to determine the type of enzyme inhibition; it was used to identify the dissociation or inhibition constant (Ki) for the enzyme-inhibitor complex. Dixon plots (single reciprocal plots) for RLAR and HRAR inhibition were obtained in the presence of 100, 50, and 10 mM RLAR, and 20, 10, and 5 mM HRAR DL-glyceraldehyde substrate. Thus, the type of enzyme inhibition was determined by interpreting the Lineweaver-Burk plots, and the inhibition constants (Ki) were determined by interpreting the Dixon plots.

[3] = molecular target: T2, human recombinant aldose reductase (HRAR) (Homo sapiens, UniProt P15121); test: Enzyme kinetics of HRAR inhibition (Lineweaver-Burk and Dixon plots); format: biochemical; conditions: for HRAR Mode of Inhibition: Lineweaver-Burk plot
T2 construct: purchased Wako Chemicals (Osaka, Japan)
Protocol: as §1

[4] = molecular target: T1, rat lens aldose reductase (RLAR); test: RLAR inhibitory activity assay (rat lens homogenate, DL-glyceraldehyde substrate); format: biochemical
Protocol: A rat lens homogenate was prepared with minor modifications according to the method reported by Hayman et al.. Briefly, the lenses were removed from the eyes of Sprague-Dawley rats weighing 250–280 g. They were homogenized in sodium phosphate buffer (pH 6.2) that was prepared with dibasic sodium phosphate (Na2HPO4∙H2O, 0.66 g) and monobasic sodium phosphate (NaH2PO4∙H2O, 1.27 g) in 100 mL of double-distilled H2O. The homogenate was clarified by centrifugation at 10,000 rpm at 4 °C for 20 min and the resultant supernatant was frozen until use. A crude AR homogenate with a specific activity of 6.5 U/mg was used in all enzyme inhibition evaluations. The reaction solution consisted of 620 µL of 100 mM sodium phosphate buffer (pH 6.2), 90 µL of AR homogenate, 90 µL of 1.6 mM NADPH, and 9 µL of sample, while the substrate included 90 µL of 50 mM DL-glyceraldehyde. […] AR activity was determined by measuring the decrease in NADPH absorption at 340 nm over a 4 min period on an Ultrospec®2100pro UV/Visible spectrophotometer. SWIFT II Applications software (Amersham Biosciences, NJ, USA) was used for all data analyses. The inhibition percentage (%) was calculated as follows in Equation (1):[1 − (∆Asample/min − ∆Ablank/min)/(∆Acontrol/min − ∆Ablank/min)] × 100(1) in which ∆Asample/min represents the test sample and substrate’s reduction in absorbance over 4 min, and ∆A control/min represents the same reduction in absorbance, but with 100% DMSO (dimethyl sulfoxide) rather than the test sample.

[5] = molecular target: T2, human recombinant aldose reductase (HRAR); test: HRAR inhibition assay (DL-glyceraldehyde substrate); format: biochemical
Protocol: HRAR inhibition was studied according to Nishimura et al.. AR action was studied by measuring the reduction in NADPH absorption at 340 nm over a period of 1 min on a UV/visible spectrophotometer (Ultrospec®2100pro, Biochrom, Holliston, MA, USA). For HRAR inhibition, the HRAR enzyme (0.4 units), was used in all enzyme inhibition evaluations. […] The inhibition percentage (%) was measured as designated in the RLAR assay. The DA sample/min value characterizes the decrease in absorbance for 1 min with the test samples and substrate. The ability of each sample to inhibit HRAR was observed as an IC50 value (µM) and measured from the log-dose inhibition curve.

[6] = Dixon plots, single inhibition constant, read-out: HRAR Ki
[7] = rat lens homogenate, substrate DL-glyceraldehyde, mean ± S.E.M. of triplicate experiments, read-out: RLAR IC50
[8] = substrate DL-glyceraldehyde, mean ± S.E.M. of triplicate experiments, read-out: HRAR IC50

Structure (SMILES)	Sorbitol Content (mg)/Lens Wet Weight (g) [1]	inhibition at 5 µg/mL [1] [%]	Ki [2] [µM]	RLAR Mode of Inhibition [2]	RLAR Mode of Inhibition ([2]; listed as Rh2)	Ki [3] [µM]	HRAR Kiu (binding constant of inhibitor with enzyme-substrate complex) ([3]; Dixon plots) [µM]	HRAR Mode of Inhibition [3]	IC50 [4] [µM]	IC50 [5] [µM]	inhibition at 5 µg/mL ([1]; Rattus norvegicus) [%]	RLAR Kiu (binding constant of inhibitor with enzyme-substrate complex) ([2]; Dixon plots) [µM]	Ki ([2]; Dixon plots, read-out: RLAR Kic (binding constant of inhibitor with free enzyme)) [µM]	Ki [3, 6] [µM]	HRAR Mode of Inhibition ([3]; listed as protopanaxadiol)	IC50 [4, 7] [µM]	IC50 [5, 8] [µM]	Ki ([2]; Dixon plots, single inhibition constant, read-out: RLAR Ki) [µM]	RLAR Mode of Inhibition ([2]; listed as protopanaxatriol)	HRAR Mode of Inhibition ([3]; listed as protopanaxatriol)
CC(C)=CCC[C@](C)(O)[C@H]1CC[C@]2(C)[C@@H]1[C@H](O)C[C@@H]1[C@@]3(C)CC[C@H](O[C@@H]4O[C@H](CO)[C@@H](O)[C@H](O)[C@H]4O)C(C)(C)[C@@H]3CC[C@]12C [Ginsenoside Rh2]	0.05 ± 0.01 ^a mg/g	97.1 ± 5.41	0.43	Competitive type	competitive	3.63	9.22	Mixed type	0.67 ± 0.01	7.44 ± 0.55										
CC(C)=CCC[C@](C)(O)C1CC[C@]2(C)[C@@H]1[C@H](O)CC1[C@@]3(C)CC[C@H](O)C(C)(C)C3CC[C@]12C (stereo partly drawn) [Protopanaxadiol]	0.06 ± 0.01 ^a mg/g			Mixed type				Competitive type			96.5 ± 2.91	37.39	18.8	0.72	competitive	21.4 ± 2.45	0.36 ± 0.1			
CC(C)=CCC[C@](C)(O)[C@H]1CC[C@]2(C)[C@@H]1[C@H](O)C[C@@H]1[C@@]3(C)CC[C@H](O)C(C)(C)[C@@H]3[C@@H](O)C[C@]12C [Protopanaxatriol]	0.09 ± 0.01 ^a mg/g			Non-competitive type				Competitive type			94.8 ± 3.46			2.61		27.9 ± 1.19	1.43 ± 0.14	28.9	non-competitive	competitive

Source: paper PMC9000482, “Inhibition of Aldose Reductase by Ginsenoside Derivatives via a Specific Structure Activity Relationship with Kinetics Mechanism and Molecular Docking Study” (Molecules, 2022)
